Drawing on US10858335B2 (Rigel Pharmaceuticals, Inc., priority 2014, dated 2020), this text covers IC50 for 31 molecules.

The subject of the first experiment is GDF8 signaling (p-SMAD-3 (Ser423/425)). In words: AlphaScreen SureFire SMAD3 (p-Ser423/425) assay, GDF8-stimulated cells (GDF pSMAD). It counts as cell-based. The settings on record: MPC11; GDF8-stimulated; p-SMAD3 AlphaScreen; read-out: GDF pSMAD (MPC11) (inhibition of GDF8 signaling). Background: Alpha assays give light when donor and acceptor beads are brought close together.
As to `Nc1ncnc2ccc(-c3cccnc3-c3ccc(F)c(Cl)c3)cc12` [compound 448, 6-(2-(3-Chloro-4-fluorophenyl)pyridin-3-yl)quinazolin-4-amine], the IC50 amounted to 0.137 µM.

Take `Cc1cc(-c2ncccc2-c2ccc3ncc(C(=O)NC4CC5CCC(C4)N5C)n3c2)ccc1F` (stereo not drawn) [compound 713, endo-6-(2-(4-Fluoro-3-methylphenyl)pyridin-3-yl)-N-(8-methyl-8-azabicyclo[3.2.1]octan-3-yl)imidazo[1,2-a]pyridine-3-carboxamide]: the IC50 was found to be 10.2 µM.

Regarding `Cc1cc(-c2ncccc2-c2ccc3ncc(C(=O)NC4CC5CCC(C4)N5C)n3c2)ccc1F` (stereo not drawn) [compound 712, exo-6-(2-(4-Fluoro-3-methylphenyl)pyridin-3-yl)-N-(8-methyl-8-azabicyclo[3.2.1]octan-3-yl)imidazo[1,2-a]pyridine-3-carboxamide], the IC50 turned out to be 4.06 µM.

The same experiment, now with this note: Mus musculus, MPC-11, GDF8-stimulated pSMAD3, MPC11; tested as the salt form given; read-out: GDF pSMAD (MPC11) (μM), inhibition of GDF8 signaling.
As to `Cc1cc(F)c(O)cc1-c1ncccc1-c1ccc2ncnc(N)c2c1` [compound 1019], the IC50 amounted to 7.43 µM. The same measure, in the same setting: in the case of `CN(C)C(=O)Oc1cccc(-c2ncccc2-c2ccc3ncnc(N)c3c2)c1` [compound 979, 3-(3-(4-aminoquinazolin-6-yl)pyridin-2-yl)phenyl dimethylcarbamate] it was 14 µM.

The experiment is the same for the next values; noted with them: Mus musculus, MPC-11, MPC11; GDF8-stimulated; p-SMAD3 AlphaScreen; read-out: GDF pSMAD (MPC11) (inhibition of GDF8 signaling).
As for `Cc1cc(-c2ncccc2-c2ccc3ncn(C(C)C)c3c2)ccc1F` [Compound 48, 6-(2-(4-Fluoro-3-methylphenyl)pyridin-3-yl)-1-isopropyl-1H-benzo[d]imidazole], the IC50 turned out to be 8.38 µM. Take `CNC(=O)COCc1cnc(-c2ccc(F)c(C)c2)c(-c2ccc3nccnc3c2)c1` [compound 232, 2-((6-(4-Fluoro-3-methylphenyl)-5-(quinoxalin-6-yl)pyridin-3-yl)methoxy)-N-methylacetamide]: the IC50 amounted to 10.6 µM. Regarding `Cc1cc(-c2ncc(N)cc2-c2ccc3nccnc3c2)ccc1F` [compound 239, 6-(4-Fluoro-3-methylphenyl)-5-(quinoxalin-6-yl)pyridin-3-amine], the IC50 amounted to 0.266 µM. The same measure, in the same setting: in the case of `Fc1ccc(-c2ncccc2-c2ccn3ncnc3c2)cc1Cl` [compound 733, 7-(2-(3-Chloro-4-fluorophenyl)pyridin-3-yl)-[1,2,4]triazolo[1,5-a]pyridine] it was 1.27 µM; in that of `Cc1cc(-c2ncccc2-c2ccc3cnc(C(=O)NCCCN4CCCC4)n3c2)ccc1F` [compound 273, 6-(2-(4-Fluoro-3-methylphenyl)pyridin-3-yl)-N-(3-(pyrrolidin-1-yl)propyl)imidazo[1,5-a]pyridine-3-carboxamide], 9.79 µM. Regarding `Nc1cccc(-c2ncccc2-c2ccc3[nH]ncc3c2)c1` [Compound 75, 5-(2-(3-Aminophenyl)pyridin-3-yl)-1H-indazole], the IC50 is 3.47 µM. Turning to `Cc1cc(-c2ncccc2-c2ccc3c(cnn3C(=O)NCCCN)c2)ccc1F` [compound 640, N-(3-Aminopropyl)-5-(2-(4-fluoro-3-methylphenyl)pyridin-3-yl)-1H-indazole-1-carboxamide], the IC50 worked out at 19.2 µM. Still for that read-out and setting: in the case of `Cc1cc(-c2ncccc2-c2ccc3ncnn3n2)ccc1F` [compound 952, 6-(2-(4-Fluoro-3-methylphenyl)pyridin-3-yl)-[1,2,4]triazolo[1,5-b]pyridazine] it was 0.391 µM.

On to `Cc1cccc(-c2ncccc2-c2ccc3cn[nH]c3c2)c1` [Compound 102, 6-(2-m-Tolylpyridin-3-yl)-1H-indazole], for which the IC50 was 0.341 µM.

On to `Fc1cnc(-c2cc(Cl)ccc2F)c(-c2ccn3ncnc3c2)c1` [compound 862, 7-(2-(5-Chloro-2-fluorophenyl)-5-fluoropyridin-3-yl)-[l 1,2,4]triazolo[1,5-a]pyridine], for which the IC50 was determined as 1.84 µM. The same measure, in the same setting: in the case of `c1ccc(-c2ncccc2-c2ccc3ncnn3c2)cc1` [compound 781, 6-(2-Phenylpyridin-3-yl)-[1,2,4]triazolo[1,5-a]pyridine] it was 5.86 µM; in that of `Fc1ccc(-c2ncccc2-c2ccc3ncsc3n2)cc1Cl` [compound 305, 5-(2-(3-Chloro-4-fluorophenyl)pyridin-3-yl)thiazolo[5,4-b]pyridine], 0.175 µM; in that of `Cc1cc(-c2ncccc2-c2ccc3ncn(C)c3c2)ccc1F` [Compound 187, 6-(2-(4-Fluoro-3-methylphenyl)pyridin-3-yl)-1-methyl-1H-benzo[d]imidazole], 0.228 µM. Still for that read-out and setting: as for `Fc1cc(F)c(-c2ncccc2-c2ccc3nccn3n2)cc1Cl` [compound 938, 6-(2-(5-Chloro-2,4-difluorophenyl)pyridin-3-yl)imidazo[1,2-b]pyridazine], the figure is 0.242 µM; as for `Fc1ccc(Cl)cc1-c1ncccc1-c1ccn2nccc2n1` [compound 917, 5-(2-(5-Chloro-2-fluorophenyl)pyridin-3-yl)pyrazolo[1,5-a]pyrimidine], 0.18 µM; as for `Cc1cc(-c2ncc(-c3cccc(O)c3)cc2-c2ccc3ncsc3c2)ccc1F` [compound 343, 3-(5-(Benzo[d]thiazol-6-yl)-6-(4-fluoro-3-methylphenyl)pyridin-3-yl)phenol], 2.64 µM. In the case of `Cn1cnc2ccc(-c3cccnc3-c3ccc(F)cc3)cc2c1=O` [compound 381, 6-(2-(4-Fluorophenyl)pyridin-3-yl)-3-methylquinazolin-4(3H)-one], the IC50 was found to be 2.61 µM. Same read-out and setting: in the case of `Oc1cccc(-c2ncccc2-c2ccc3[nH]ncc3c2)c1` [Compound 120, 3-(3-(1H-Indazol-5-yl)pyridin-2-yl)phenol] it was 0.363 µM; in that of `c1cc(-c2ncccc2-c2ccc3nccnc3c2)cc(C2CC2)c1` [compound 541, 6-(2-(3-Cyclopropylphenyl)pyridin-3-yl)quinoxaline], 0.25 µM. Turning to `Cc1cc(-c2ncccc2-c2ccn3ncc(C(=O)NCCCN4CCCC4)c3c2)ccc1F` [compound 675, 5-(2-(4-Fluoro-3-methylphenyl)pyridin-3-yl)-N-(3-(pyrrolidin-1-yl)propyl)pyrazolo[1,5-a]pyridine-3-carboxamide], the IC50 was 0.227 µM. Still for that read-out and setting: in the case of `Cc1cc(-c2ncc(NC3CCN(C)CC3)cc2-c2ccc3nccnc3c2)ccc1F` [compound 240, 6-(4-Fluoro-3-methylphenyl)-N-(1-methylpiperidin-4-yl)-5-(quinoxalin-6-yl)pyridin-3-amine] it was 7.45 µM; in that of `CCOc1cnc(-c2ccc(F)c(C)c2)c(-c2ccc3[nH]ncc3c2)c1` [Compound 1, 5-(5-Ethoxy-2-(4-fluoro-3-methylphenyl)pyridin-3-yl)-1H-indazole], 1.65 µM; in that of `Cc1cccc(-c2ncccc2-c2ccc3ncncc3c2)c1` [compound 364, 6-(2-(m-Tolyl)pyridin-3-yl)quinazoline], 0.338 µM. With `CC(=O)Nc1cnc(-c2cccc(C3CC3)c2)c(-c2ccc3[nH]ncc3c2)c1` [Compound 25, N-(6-(3-Cyclopropylphenyl)-5-(1H-indazol-5-yl)pyridin-3-yl)acetamide], the IC50 turned out to be 0.612 µM. On the same count and under the same terms, as for `COc1cnc(-c2cccc(Cl)c2)c(-c2ccn3ncnc3c2)c1` [compound 855, 7-(2-(3-Chlorophenyl)-5-methoxypyridin-3-yl)-[1,2,4]triazolo[1,5-a]pyridine], the figure is 3.44 µM. For `N#Cc1cnc2ccc(-c3cccnc3-c3ccc(F)c(F)c3)cn12` [compound 622, 6-(2-(3,4-Difluorophenyl)pyridin-3-yl)imidazo[1,2-a]pyridine-3-carbonitrile], the IC50 amounted to 3.63 µM.
